Results as given in ChEMBL document CHEMBL1148892, “Evaluation of in vitro aldose redutase inhibitory activity of 5-arylidene-2,4-thiazolidinediones” (Bioorg Med Chem Lett, 2007).

What follows are compounds tested against Aldo-keto reductase family 1 member B1 (Bos taurus, UniProt P16116) (assay: Inhibition of bovine aldose reductase).

Row | SMILES | IC50 [nM]
1 | COc1cc(/C=C2\SC(=O)N(CC(=O)O)C2=O)ccc1OCC(=O)O | 260
2 | COc1cc(/C=C2\SC(=O)N(CC(=O)O)C2=O)ccc1O | 700
3 | O=C(O)COc1ccc(/C=C2\SC(=O)N(CC(=O)O)C2=O)cc1 | 600
4 | COc1ccc(/C=C2\SC(=O)N(CC(=O)O)C2=O)cc1O | 560
5 | COc1cc(/C=C2\SC(=O)NC2=O)ccc1O | 11800
6 | O=C(O)COc1cccc(/C=C2\SC(=O)N(CC(=O)O)C2=O)c1 | 230

Each compound was assayed against Aldo-keto reductase family 1 member B1 (Bos taurus) (UniProt P16116) (assay: Inhibition of bovine aldose reductase at 12.5 uM).

Row | SMILES | inhibition [%]
7 | COc1ccc(/C=C2\SC(=O)NC2=O)cc1O | 33
